# Measurements reported in patent publication US7767665B2, “1,3-benzothiazinone derivatives and use thereof” (Takeda Pharmaceutical Company Limited, priority 2001, dated 2010).
row,Structure (SMILES),melting point
1,"O=c1nc(-c2cc(-c3ccccc3)ccn2)sc2ccccc12 [Example 137, 2-(4-Phenyl-2-pyridyl)-4H-1,3-benzothiazine-4-one]",164.4 to 164.7 °C
2,"O=c1nc(-c2ccc3c(n2)CCCC3)sc2ccccc12 [Example 139, 2-(5,6,7,8-Tetrahydro-2-quinolyl)-4H-1,3-benzothiazine-4-one]",232.3 to 232.8 °C
3,"CCc1cccc(-c2nc(=O)c3ccccc3s2)n1 [Example 140, 2-(6-Ethyl-2-pyridyl)-4H-1,3-benzothiazine-4-one]",150.5 to 150.9 °C
4,"N#Cc1ccnc(-c2nc(=O)c3ccccc3s2)c1 [Example 143, 2-(4-Cyano-2-pyridyl)-4H-1,3-benzothiazine-4-one]",283.4 to 283.6 °C
5,"CCN(CC)C(=O)c1ccc(-c2nc(=O)c3ccccc3s2)nc1 [Example 144, N,N-Diethyl-6-(4-oxo-4H-1,3-benzothiazin-2-yl)nicotinamide]",193.2 to 193.3 °C
6,"CC(=O)c1ccc(-c2nc(=O)c3ccccc3s2)nc1 [Example 145, 2-(5-Acetyl-2-pyridyl)-4H-1,3-benzothiazine-4-one]",276.3 to 276.7 °C
7,"CC(C)(C)OC(=O)/C=C/c1cccc(-c2nc(=O)c3ccccc3s2)n1 [Example 147, tert-Butyl (E)-3-[6-(4-oxo-4H-1,3-benzothiazin-2-yl)-2-pyridyl]-2-propenoate]",175.5 to 177.6 °C
8,"CC(C)(C)[S+]([O-])c1cccc(-c2nc(=O)c3ccccc3s2)n1 (stereo not shown) [Example 153, 2-[6-(tert-Butylsulfinyl)-2-pyridyl]-4H-1,3-benzothiazine-4-one]",180.5 °C (dec.)
9,"CC(C)(C)S(=O)(=O)c1cccc(-c2nc(=O)c3ccccc3s2)n1 [Example 154, 2-[6-(tert-Butylsulfonyl)-2-pyridyl]-4H-1,3-benzothiazine-4-one]",233.6 to 234.7 °C
10,"CCCCCS(=O)(=O)c1cccc(-c2nc(=O)c3ccccc3s2)n1 [Example 156, 2-[6-(n-Pentylsulfonyl)-2-pyridyl]-4H-1,3-benzothiazine-4-one]",160 to 161 °C
11,"CC(C)CC[S+]([O-])c1cccc(-c2nc(=O)c3ccccc3s2)n1 (stereo not shown) [Example 157, 2-(6-Isoamylsulfinyl-2-pyridyl)-4H-1,3-benzothiazine-4-one]",59.5 to 61 °C
12,"O=c1nc(-c2cccc(SCc3ccccc3)n2)sc2ccccc12 [Example 159, 2-(6-Benzylthio-2-pyridyl)-4H-1,3-benzothiazine-4-one]",227 to 228 °C
13,"O=c1nc(-c2cccc([S+]([O-])Cc3ccccc3)n2)sc2ccccc12 (stereo not shown) [Example 160, 2-(6-Benzylsulfinyl-2-pyridyl)-4H-1,3-benzothiazine-4-one]",208.5 to 210 °C
14,"O=c1nc(-c2cccc(S(=O)(=O)Cc3ccccc3)n2)sc2ccccc12 [Example 161, 2-[6-(Benzylsulfonyl)-2-pyridyl]-4H-1,3-benzothiazine-4-one]",217 to 218 °C
15,"O=c1nc(-c2cccc([S+]([O-])CCc3ccccc3)n2)sc2ccccc12 (stereo not shown) [Example 162, 2-[6-(2-Phenylethylsulfinyl)-2-pyridyl]-4H-1,3-benzothiazine-4-one]",164.5 to 165.5 °C
16,"O=c1nc(-c2cccc(S(=O)(=O)CCc3ccccc3)n2)sc2ccccc12 [Example 163, 2-[6-(2-Phenylethyl)sulfonyl-2-pyridyl]-4H-1,3-benzothiazine-4-one]",161.5 to 163.5 °C
17,"O=c1nc(-c2cccc([S+]([O-])CCCc3ccccc3)n2)sc2ccccc12 (stereo not shown) [Example 165, 2-[6-[(3-Phenylpropyl)sulfinyl]-2-pyridyl]-4H-1,3-benzothiazine-4-one]",164.5 to 165.5 °C
18,"CSCc1cccc(-c2nc(=O)c3ccccc3s2)n1 [Example 167, 2-(6-Methylthiomethyl-2-pyridyl)-4H-1,3-benzothiazine-4-one]",151.5 to 153 °C
19,"O=c1nc(-c2cccc(CN3CCOCC3)n2)sc2ccccc12 [Example 170, 2-[6-(4-Morpholinomethyl)-2-pyridyl]-4H-1,3-benzothiazine-4-one]",191.8 °C (dec.)
20,"CSc1ccc(-c2nc(=O)c3ccccc3s2)cn1 [Example 171, 2-[6-(Methylthio)-3-pyridyl]-4H-1,3-benzothiazine-4-one]",167.9 to 169.9 °C
21,"O=c1nc(-c2c[nH]c3ccccc23)sc2ccccc12 [Example 172, 2-(1H-Indol-3-yl)-4H-1,3-benzothiazine-4-one]",276.5 to 277 °C
22,"Cc1ccc2c(=O)nc(-c3cccc(CCC(=O)OC(C)(C)C)n3)sc2c1 [Example 175, tert-Butyl 3-[6-(7-methyl-4-oxo-4H-1,3-benzothiazin-2-yl)-2-pyridyl]propanoate]",134.8 to 134.9 °C
23,"Cc1ccc2c(=O)nc(-c3cccc(CCC(=O)O)n3)sc2c1 [Example 176, 3-[6-(7-Methyl-4-oxo-4H-1,3-benzothiazin-2-yl)-2-pyridyl]propionic acid]",221.9 to 222.5 °C
24,"CC(C)(C)OC(=O)CCc1cccc(-c2nc(=O)c3ccc(C(F)(F)F)cc3s2)n1 [Example 177, tert-Butyl 3-[6-(4-oxo-7-trifluoromethyl-4H-1,3-benzothiazin-2-yl)-2-pyridyl]propanoate]",148.5 to 149.4 °C
25,"CC(C)(C)OC(=O)CCc1cccc(-c2nc(=O)c3ccc(F)cc3s2)n1 [Example 181, tert-Butyl 3-[6-(7-fluoro-4-oxo-4H-1,3-benzothiazin-2-yl)-2-pyridyl]propanoate]",158.5 to 159.5 °C
26,"O=C(O)CCc1ccnc(-c2nc(=O)c3ccc(F)cc3s2)c1 [Example 186, 3-[2-(7-Fluoro-4-oxo-4H-1,3-benzothiazin-2-yl)-4-pyridyl]propionic acid]",240 °C (dec.)

# The next lines start with the values.
row,melting point,Structure (SMILES)
1,199.7 to 199.9 °C,"Cc1ccnc(-c2nc(=O)c3ccccc3s2)c1 [Example 138, 2-(4-Methyl-2-pyridyl)-4H-1,3-benzothiazine-4-one]"
2,207.6 to 207.9 °C,"Nc1ccnc(-c2nc(=O)c3ccccc3s2)c1 [Example 142, 2-(4-Amino-2-pyridyl)-4H-1,3-benzothiazine-4-one]"
3,115.6 to 115.7 °C,"O=C(O)/C=C/c1cccc(-c2nc(=O)c3ccccc3s2)n1 [Example 148, (E)-3-[6-(4-oxo-4H-1,3-benzothiazin-2-yl)-2-pyridyl]-2-prop enoic acid]"
4,181.5 to 182.1 °C,"CC[S+]([O-])c1cccc(-c2nc(=O)c3ccccc3s2)n1 (stereo not shown) [Example 149, 2-[6-(Ethylsulfinyl)-2-pyridyl]-4H-1,3-benzothiazine-4-one]"
5,201.5 to 203 °C,"CCS(=O)(=O)c1cccc(-c2nc(=O)c3ccccc3s2)n1 [Example 150, 2-[6-(Ethylsulfonyl)-2-pyridyl]-4H-1,3-benzothiazine-4-one]"
6,205 to 206 °C,"CC(C)S(=O)(=O)c1cccc(-c2nc(=O)c3ccccc3s2)n1 [Example 152, 2-[6-(Isopropylsulfonyl)-2-pyridyl]-4H-1,3-benzothiazine-4-one]"
7,146 to 147 °C,"CCCCC[S+]([O-])c1cccc(-c2nc(=O)c3ccccc3s2)n1 (stereo not shown) [Example 155, 2-[6(n-Pentylsulfinyl)-2-pyridyl]-4H-1,3-benzothiazine-4-one]"
8,145.5 to 147 °C,"CC(C)CCS(=O)(=O)c1cccc(-c2nc(=O)c3ccccc3s2)n1 [Example 158, 2-(6-Isoamylsulfonyl-2-pyridyl)-4H-1,3-benzothiazine-4-one]"
9,192.5 to 194 °C,"O=c1nc(-c2cccc(SCCCc3ccccc3)n2)sc2ccccc12 [Example 164, 2-[6-(3-Phenylpropylthio)-2-pyridyl]-4H-1,3-benzothiazine-4-one]"
10,149.5 to 151 °C,"O=c1nc(-c2cccc(S(=O)(=O)CCCc3ccccc3)n2)sc2ccccc12 [Example 166, 2-[6-[(3-Phenylpropyl)sulfonyl]-2-pyridyl]-4H-1,3-benzothiazine-4-one]"
11,184.5 to 185.5 °C,"C[S+]([O-])Cc1cccc(-c2nc(=O)c3ccccc3s2)n1 (stereo not shown) [Example 168, 2-(6-Methylsulfinylmethyl-2-pyridyl)-4H-1,3-benzothiazine-4-one]"
12,230.5 to 231.5 °C,"CS(=O)(=O)Cc1cccc(-c2nc(=O)c3ccccc3s2)n1 [Example 169, 2-(6-Methylsulfonylmethyl-2-pyridyl)-4H-1,3-benzothiazine-4-one]"
13,134.5 to 135.4 °C,"COc1ccc2c(=O)nc(-c3cccc(CCC(=O)OC(C)(C)C)n3)sc2c1 [Example 173, tert-Butyl 3-[6-(7-methoxy-4-oxo-4H-1,3-benzothiazin-2-yl)-2-pyridyl]propanoate]"
14,234.2 to 235.2 °C,"COc1ccc2c(=O)nc(-c3cccc(CCC(=O)O)n3)sc2c1 [Example 174, 3-[6-(7-Methoxy-4-oxo-4H-1,3-benzothiazin-2-yl)-2-pyridyl]propionic acid]"
15,192.9 to 193.1 °C,"O=C(O)CCc1cccc(-c2nc(=O)c3ccc(C(F)(F)F)cc3s2)n1 [Example 178, 3-[6-(4-Oxo-7-trifluoromethyl-4H-1,3-benzothiazin-2-yl)-2-pyridyl]propionic acid]"
16,215 to 217 °C,"O=C(O)CCc1cccc(-c2nc(=O)c3ccc(F)cc3s2)n1 [Example 182, 3-[6-(7-Fluoro-4-oxo-4H-1,3-benzothiazin-2-yl)-2-pyridyl]propionic acid]"
17,151.8 to 152.1 °C,"CC(C)(C)OC(=O)CCc1ccnc(-c2nc(=O)c3ccc(Cl)cc3s2)c1 [Example 183, tert-Butyl 3-[2-(7-chloro-4-oxo-4H-1,3-benzothiazin-2-yl)-4-pyridyl]propanoate]"
18,137.6 to 138.1 °C,"CC(C)(C)OC(=O)CCc1ccnc(-c2nc(=O)c3ccc(F)cc3s2)c1 [Example 184, tert-Butyl 3-[2-(7-fluoro-4-oxo-4H-1,3-benzothiazin-2-yl)-4-pyridyl]propanoate]"
19,262.9 to 263.5 °C,"O=C(O)CCc1ccnc(-c2nc(=O)c3ccc(Cl)cc3s2)c1 [Example 185, 3-[2-(7-Chloro-4-oxo-4H-1,3-benzothiazin-2-yl)-4-pyridyl]propionic acid]"
20,172.9 to 173.7 °C,"CC(C)(C)OC(=O)CCc1ccnc(-c2nc(=O)c3ccc(Br)cc3s2)c1 [Example 187, tert-Butyl 3-[2-(7-bromo-4-oxo-4H-1,3-benzothiazin-2-yl)-4-pyridyl]propanoate]"
